According to patent US11801242B2, “Compositions and methods for adjuvant cancer therapeutics” (DUKE UNIVERSITY, priority 2018, dated 2023):

Tested on: KP cells
Assay: CellTiter-Glo Luminescence cell viability assay
Type: cell-based, mouse
Description: Relative viability of cells in response to RE01 and DNA-damaging agents was assessed by the CellTiter-Glo Luminescence cell viability assay (Promega) that determines the number of viable cells based on the relative amount of ATP in the culture, which is directly proportional to the number of metabolically active cells. Briefly, 10,000 cells were plated in each well of a 96-well, white, clear flat bottom plate (Corning). Increasing doses of drugs in various combinations-RE01 alone or in combination with DNA-damaging agents-were added into the plates after 24 hours. The RE01 compound was dissolved in 0.1% DMSO and other drugs were dissolved in solvents ascribed by the manufacturer. In all cases, DMSO controls were run in parallel to the drug treatments. Cells were treated with DMSO or cisplatin (0.5 uM) for 24 hours, followed by RE01 (1.5 uM) treatment for additional 24 hours. Cells were washed and allowed to form colonies for 5-7 days and counted after staining with Coomassie brilliant blue R-250 stain. The relative viability of cells was monitored after 24 hours of drug treatment by adding CellTiter-Glo Luminescence stain to an equilibrated plate per the manufacturer's instructions. Luminescence was measured on the plate reader (Tecan Spark 10M). Relative luminescence, which is indicative of relative survival of metabolically active cells, was calculated by dividing the luminescence of treated samples with DMSO controls.
Viabilities of HT1080 (human fibrosarcoma), A375 (human melanoma), LNCap (human prostate adenocarcinoma), KP (mouse Kras^G12D;p53^−/− lung adenocarcinoma), and AG01522 (human primary fibroblasts) cells were assessed by the Promega CellTiter-Glo Luminescence cell viability assay. Relative luminescence intensities to samples treated with 0 μM RE01 (panel A) or with 0 μM DNA-damaging agents (panels B and C) are plotted. Blue lines represent single agent treatments, and orange lines represent RE01 combination treatments. […]

Measured: sensitization to DNA-damaging agent

CC(C)CC(=O)c1c(Nc2ccc(Cl)cc2Cl)[nH]c2c(Cl)ccc([N+](=O)[O-])c2c1=O [RE01, 8-chloro-2-((2,4-dichlorophenyl)amino)-3-(3-methylbutanoyl)-5-nitroquinolin-4(1H)-one]
sensitized: RE01 1.5 μM with 4-nitroquinolone 1-oxide (4-NQO) | RE01 1.5 μM with benzo[a]pyrene diol epoxide (BPDE) | RE01 1.5 μM with methyl methanesulfonate (MMS)
